Reference: patent US5723109A, “Use of salicyclic acid derivatives for depigmenting the skin” (L'Oreal, priority 1995, dated 1998)

Test system: tyrosinase from human melanocytes
Test: dopa-oxidase activity of tyrosinase from human melanocytes
Format: cell-based
Description: Human melanocytes were prepared and cultured and then introduced into media containing different concentrations of 5-(n-octanoyl)salicylic acid (0.5 μM, 1 μM, 2 μM and 5 μM).
After three days, the melanocytes were "trypsinizated" in a 0.05%/0.02% trypsin/EDTA mixture in a phosphate buffer (50 mM at pH 6.8), washed three times in phosphate buffer containing 1% (w/v) of TRITON X-100 and subjected to ultrasound. After centrifuging, samples were withdrawn and mixed with 5 mM L-DOPA in phosphate buffer. The tyrosinase activity was evaluated by spectrophotometry. The increase in the absorbance at 475 nm is due to the formation of dopachrome from 5 mM DOPA being measured. The absorbance was read on a microplate reader at 25° C. for 60 min.
The activity of the cellular tyrosinase was measured with respect to a calibration range prepared with commercially available tyrosinase.

- decrease of dopa-oxidase activity of the tyrosinase from the melanocytes (concentration of 5 μM, three days): more particularly pronounced
- dopa-oxidase activity of the tyrosinase from the melanocytes (percentage of activity with respect to the starting activity, FIG. 1) (human melanocytes cultured three days with 0.5 μM, 1 μM, 2 μM and 5 μM, 5 mM L-DOPA, absorbance at 475 nm): significantly decreases
Structure (SMILES): CCCCCCCC(=O)c1ccc(O)c(C(=O)O)c1 [5-(n-octanoyl)salicylic acid]
